Reference: patent publication US11555012B2 (Nimbus Artemis, Inc., priority 2018, dated 2023)

molecular target: ACL (Homo sapiens (Human), UniProt P53396); experiment: ADP-Glo Assay
Sequence (P53396 other isoform, or with tags, fused parts or gaps isoform P53396-2): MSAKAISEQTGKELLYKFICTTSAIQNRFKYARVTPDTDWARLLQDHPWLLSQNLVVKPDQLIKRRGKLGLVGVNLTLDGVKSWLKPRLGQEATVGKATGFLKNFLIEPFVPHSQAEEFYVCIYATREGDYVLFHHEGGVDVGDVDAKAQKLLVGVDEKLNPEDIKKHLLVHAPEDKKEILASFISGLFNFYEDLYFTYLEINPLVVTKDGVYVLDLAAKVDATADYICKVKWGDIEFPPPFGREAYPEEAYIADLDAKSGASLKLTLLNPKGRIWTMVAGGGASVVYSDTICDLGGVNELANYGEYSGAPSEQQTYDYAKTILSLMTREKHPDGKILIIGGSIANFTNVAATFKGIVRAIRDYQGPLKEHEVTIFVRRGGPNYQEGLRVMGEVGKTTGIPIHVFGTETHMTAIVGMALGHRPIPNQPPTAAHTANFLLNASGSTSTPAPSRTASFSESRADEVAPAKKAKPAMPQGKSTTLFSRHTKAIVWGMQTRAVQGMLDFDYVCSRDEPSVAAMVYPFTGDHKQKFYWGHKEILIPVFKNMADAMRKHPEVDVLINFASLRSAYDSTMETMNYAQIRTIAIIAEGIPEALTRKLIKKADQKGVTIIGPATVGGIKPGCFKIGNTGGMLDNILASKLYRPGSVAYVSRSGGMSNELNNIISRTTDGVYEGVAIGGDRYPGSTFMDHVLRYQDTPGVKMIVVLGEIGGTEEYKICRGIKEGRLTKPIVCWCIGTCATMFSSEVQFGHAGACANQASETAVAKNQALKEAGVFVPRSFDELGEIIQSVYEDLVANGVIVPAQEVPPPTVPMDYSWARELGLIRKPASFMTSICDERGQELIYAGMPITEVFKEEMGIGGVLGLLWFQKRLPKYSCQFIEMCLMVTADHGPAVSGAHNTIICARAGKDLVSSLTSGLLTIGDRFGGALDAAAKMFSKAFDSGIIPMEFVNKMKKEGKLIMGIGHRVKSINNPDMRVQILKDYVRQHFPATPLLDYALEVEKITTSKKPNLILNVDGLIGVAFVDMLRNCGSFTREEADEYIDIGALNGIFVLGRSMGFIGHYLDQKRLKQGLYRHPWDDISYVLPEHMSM
Description: Compounds of the present invention were evaluated in an ADP-GLO assay as follows:
b) Add 0.1 μL diluted cpd solution to assay plate, each dose with 2 replicates c) Centrifuge 1000 RPM for 1 min d) Add 5 μL ACL working solution to 384-well assay plate, centrifuge 1000 RPM for 1 min e) Incubate at 25° C. for 15 min f) Add 5 μL substrate working solution to initiate reaction
h) Reference final conc: 30 uM starting Conc, 3× dilution, 11+0 points. Test cpd conc: 30/100 uM starting Conc, 3× dilution, 11+0 points. i) Incubate at 25° C. for 60 min j) Add 10 μL ADP Glo reagent, centrifuge 1000 RPM for 1 min k) Incubate at 25° C. for 40 min l) Add 20 μL kinase detection reagent, centrifuge 1000 RPM for 1 min m) Incubate at 25° C. for 40 min n) Read on Envision for US LUM as RLU

IC50, 0.5 to 20 µM:
COc1ccc(-c2ccccc2)cc1NS(=O)(=O)c1cc(Cl)cc(C(=O)O)c1O [I-3, 5-chloro-2-hydroxy-3-(N-(4-methoxy-[1,1′-biphenyl]-3-yl)sulfamoyl)benzoic Acid]
COc1ccc(Br)cc1NS(=O)(=O)c1cc(Cl)cc(Cl)c1O [I-4, N-(5-bromo-2-methoxyphenyl)-3,5-dichloro-2-Hydroxybenzenesulfonamide]
COc1ccc(-c2ccc(OC)c(NS(=O)(=O)c3cc(Cl)cc(Cl)c3O)c2)cc1 [I-5, 3,5-dichloro-N-(4,4′-dimethoxy-[1,1′-biphenyl]-3-yl)-2-hydroxybenzenesulfonamide]
COc1ccc(NC(=O)C2CC2)cc1NS(=O)(=O)c1cc(Cl)cc(Cl)c1O [I-8, N-(3-((3,5-dichloro-2-hydroxyphenyl)sulfonamido)-4-methoxyphenyl) cyclopropanecarboxamide]
COc1ccc(N2CCCCC2)cc1NS(=O)(=O)c1cc(Cl)cc(Cl)c1O [I-10, 3,5-dichloro-2-hydroxy-N-(2-methoxy-5-(piperidin-1-yl)phenyl)benzenesulfonamide]
COc1cccc(-c2ccccc2)c1NS(=O)(=O)c1cc(Cl)cc(Cl)c1O [I-14, 3,5-dichloro-2-hydroxy-N-(3-methoxy-[1,1′-biphenyl]-2-yl)benzenesulfonamide]
COc1ccc(-c2ccccc2)cc1N(C)S(=O)(=O)c1cc(Cl)cc(Cl)c1O [I-17, 3,5-dichloro-2-hydroxy-N-(4-methoxy-[1,1′-biphenyl]-3-yl)-N-methylbenzenesulfonamide]
COc1ccc(-c2ccccc2)cc1NC(=O)c1cc(Cl)cc(Cl)c1O [I-18, 3,5-dichloro-2-hydroxy-N-(4-methoxy-[1,1′-biphenyl]-3-yl)benzamide]
O=S(=O)(Nc1cc(-c2ccccc2)ccc1O)c1cccc(-c2nn[nH]n2)c1 [I-25, N-(2-hydroxy-5-phenylphenyl)-3-(2H-1,2,3,4-tetrazol-5-yl) benzene-1-sulfonamide]
O=C(Nc1cc(-c2ccccc2)ccc1F)c1cc(Cl)cc(Cl)c1O [I-27, 3,5-dichloro-N-(4-fluoro-[1,1′-biphenyl]-3-yl)-2-hydroxybenzamide]
O=S(=O)(Nc1cc(-c2ccccc2)ccc1F)c1cc(Cl)ccc1O [I-30, 5-chloro-N-(2-fluoro-5-phenylphenyl)-2-hydroxybenzene-1-sulfonamide]
O=S(=O)(Nc1cc(-c2ccccc2)ccc1F)c1ccccc1O [I-35, N-(2-fluoro-5-phenylphenyl)-2-hydroxybenzene-1-sulfonamide]
O=S(=O)(Nc1cc(-c2ccccc2)ccc1F)c1cccc(-c2nn[nH]n2)c1 [I-37, N-(2-fluoro-5-phenylphenyl)-3-(2H-1,2,3,4-tetrazol-5-yl) benzene-1-sulfonamide]
COc1ccc(-c2ccccc2)cc1NS(=O)(=O)c1cc(Cl)cc(-c2nn[nH]n2)c1 [I-38, 3-chloro-N-(2-methoxy-5-phenylphenyl)-5-(2H-1,2,3,4-tetrazol-5-yl)benzene-1-sulfonamide]
COc1ccc(-c2ccccc2)cc1NS(=O)(=O)c1cc(C(=O)O)cc(Cl)c1OC [I-39, 3-chloro-4-methoxy-5-(N-(4-methoxy-[1,1′-biphenyl]-3-yl)sulfamoyl)benzoic Acid]
COc1ccc(-c2ccccc2)cc1NS(=O)(=O)c1cc(F)cc(F)c1O [I-40, 3,5-difluoro-2-hydroxy-N-(2-methoxy-5-phenylphenyl) benzene-1-sulfonamide]
COC(=O)c1cc(Cl)c(OC)c(S(=O)(=O)Nc2cc(-c3cccnc3)ccc2OC)c1 [I-42, Methyl 3-chloro-4-methoxy-5-(N-(2-methoxy-5-(pyridine-3-yl)phenyl)sulfamoyl)benzoate]
COC(=O)c1ccc(F)c(NS(=O)(=O)c2cc(Cl)cc(Cl)c2O)c1 [I-43, Methyl 3-((3,5-dichloro-2-hydroxyphenyl)sulfonamido)-4-fluorobenzoate]
COc1ccc(-c2ccccc2)cc1NS(=O)(=O)c1cc(Cl)c(O)c(Br)c1 [I-44, 3-bromo-5-chloro-4-hydroxy-N-(2-methoxy-5-phenylphenyl)benzene-1-sulfonamide]
O=C(NO)c1ccc(F)c(NS(=O)(=O)c2cc(Cl)cc(Cl)c2O)c1 [I-45, 3-[(3,5-dichloro-2-hydroxybenzene)sulfonamido]-4-fluoro-N-hydroxybenzamide]
COc1c(Cl)cc(C#N)cc1S(=O)(=O)Nc1cc(-c2ccccc2)ccc1F [I-51, 3-chloro-5-cyano-N-(4-fluoro-[1,1′-biphenyl]-3-yl)-2-methoxybenzenesulfonamide]
COC(=O)c1cc(Cl)c(OC)c(S(=O)(=O)Nc2cc(-c3cccs3)ccc2F)c1 [I-52, Methyl 3-chloro-5-(N-(2-fluoro-5-(thiophen-2-yl)phenyl)sulfamoyl)-4-methoxybenzoate]
O=S(=O)(Nc1cc(-c2ccccc2)ccc1F)c1cc(Cl)c(O)cc1O [I-54, 5-chloro-N-(2-fluoro-5-phenylphenyl)-2,4-dihydroxybenzene-1-sulfonamide]
Nc1cc(-c2ccccc2)ccc1NS(=O)(=O)c1cc(Cl)cc(Br)c1O [I-57, N-(2-amino-4-phenylphenyl)-3-bromo-5-chloro-2-hydroxybenzene-1-sulfonamide]
O=C(Nc1ccccc1)c1ccc(F)c(NS(=O)(=O)c2cc(Cl)cc(Cl)c2O)c1 [I-61, 3-((3,5-dichloro-2-hydroxyphenyl)sulfonamido)-4-fluoro-N-phenylbenzamide]
COC(=O)c1cc(Cl)c(OC)c(S(=O)(=O)Nc2cc(-c3ccccc3)c(F)cc2F)c1 [I-63, Methyl 3-chloro-5-(N-(4,6-difluoro-[1,1′-biphenyl]-3-yl)sulfamoyl)-4-methoxybenzoate]
COc1ccc(-c2ccccc2)cc1NS(=O)(=O)c1cc(CC(=O)O)cc(Cl)c1O [I-68, 2-[3-chloro-4-hydroxy-5-[(2-methoxy-5-phenylphenyl)sulfamoyl]phenyl]acetic Acid]
O=S(=O)(Nc1cc(F)ccc1F)c1cc(Cl)cc(Cl)c1O [I-69, 3,5-dichloro-N-(2,5-difluorophenyl)-2-hydroxybenzene-1-sulfonamide]
COc1c(Cl)cc(C(=O)O)cc1S(=O)(=O)Nc1cc(-c2ccccc2)ccc1F [I-70, 3-chloro-5-([4-fluoro-[1,1-biphenyl]-3-yl]sulfamoyl)-4-methoxybenzoic Acid]
COc1ccc(-c2ccccc2)cc1NS(=O)(=O)c1cc(-c2nn[nH]n2)cc(Cl)c1OC [I-71, 3-chloro-2-methoxy-N-(2-methoxy-5-phenylphenyl)-5-(2H-1,2,3,4-tetrazol-5-yl)benzene-1-sulfonamide]
O=S(=O)(Nc1cc(-c2ccccc2)c(F)cc1F)c1cc(Cl)cc(-c2nn[nH]n2)c1 [I-72, 3-chloro-N-(2,4-difluoro-5-phenylphenyl)-5-(2H-1,2,3,4-tetrazol-5-yl)benzene-1-sulfonamide]
COc1ccc(-c2ccccc2)cc1NS(=O)(=O)c1cc(-c2nn[nH]n2)cc(Cl)c1O [I-73, 3-chloro-2-hydroxy-N-(2-methoxy-5-phenylphenyl)-5-(2H-1,2,3,4-tetrazol-5-yl)benzene-1-sulfonamide]
N#Cc1cc(Cl)cc(S(=O)(=O)Nc2cc(-c3ccccc3)c(F)cc2F)c1 [I-75, 3-chloro-5-cyano-N-(2,4-difluoro-5-phenylphenyl) benzene-1-sulfonamide]
O=C(O)c1cc(Cl)c(O)c(S(=O)(=O)Nc2ccc(F)cc2F)c1 [I-76, 3-chloro-5-[(2,4-difluorophenyl)sulfamoyl]-4-hydroxybenzoic Acid]
O=C(O)COc1c(Cl)cc(Cl)cc1S(=O)(=O)Nc1cc(-c2ccccc2)c(F)cc1F [I-77, 2-(2,4-dichloro-6-(N-(4,6-difluoro-[1,1′-biphenyl]-3-yl)sulfamoyl)phenoxy)acetic Acid]
COC(=O)COc1c(Br)cc(Cl)cc1S(=O)(=O)Nc1cc(-c2ccccc2)ccc1F [I-78, Methyl 2-(2-bromo-4-chloro-6-(N-(4-fluoro-[1,1′-biphenyl]-3-yl)sulfamoyl)phenoxy)acetate]
COC(=O)COc1c(Cl)cc(Cl)cc1S(=O)(=O)Nc1cc(-c2ccccc2)c(F)cc1F [I-79, Methyl 2-[2,4-dichloro-6-[(2,4-difluoro-5-phenylphenyl)sulfamoyl]phenoxy]acetate]
O=S(=O)(Nc1cc(-c2ccccc2)ccc1F)c1cc(Cl)cc(Cl)c1OCC(F)(F)F [I-85, 3,5-dichloro-N-(2-fluoro-5-phenylphenyl)-2-(2,2,2-trifluoroethoxy)benzene-1-sulfonamide]
O=S(=O)(Nc1sccc1-c1ccccc1)c1cc(Cl)cc(Cl)c1O [I-89, 3,5-dichloro-2-hydroxy-N-(3-phenylthiophen-2-yl) benzenesulfonamide]
O=S(=O)(Nc1cc(-c2ccccc2)c(F)cc1F)c1cccc(-c2nn[nH]n2)c1 [I-96, N-(2,4-difluoro-5-phenylphenyl)-3-(2H-1,2,3,4-tetrazol-5-yl)benzene-1-sulfonamide]
O=S(=O)(Nc1cc(-c2ccccc2)ccc1F)c1cc(Cl)cc(Cl)c1Oc1nccs1 [I-97, 3,5-dichloro-N-(2-fluoro-5-phenylphenyl)-2-(1,3-thiazol-2-yloxy)benzene-1-sulfonamide]
C=CCN(c1cc(-c2ccccc2)ccc1F)S(=O)(=O)c1cc(C(=O)OC)cc(Cl)c1O [I-108, Methyl 3-(N-allyl-N-(4-fluoro-[1,1′-biphenyl]-3-yl)sulfamoyl)-5-chloro-4-hydroxybenzoate]
